The results in this text go back to ChEMBL document CHEMBL3259716, “The evolution of amidine-based brain penetrant BACE1 inhibitors” (Bioorg Med Chem Lett, 2014).

Data set [1] in a line: Dissociation constant, pKa of the compound. It is filed as physicochemical.
The nature of data set [2]: Plasma concentration in Sprague-Dawley rat at 10 mg/kg, po measured at 6 hrs by LC-MS/MS analysis. Also on record: dose 10 mg/kg, route oral. Type of data set: ADME, organism-based.
Data set [3] is described as follows: Drug uptake in Sprague-Dawley rat brain at 10 mg/kg, po measured at 6 hrs by LC-MS/MS analysis. Also on record: dose 10 mg/kg, route oral. Type of data set: ADME, organism-based. Conditions: read-out: Drug uptake.
For data set [4], the system named is Nucleic Acid. As to the kind of experiment: Ratio of drug level in brain to plasma in Sprague-Dawley rat at 10 mg/kg, po measured at 6 hrs. Type of data set: ADME, organism-based. Further details: dose 10 mg/kg, route oral.

With `COc1cccc(-c2cccc([C@@]3(c4ccncc4)N=C(N)N4CC(F)(F)CN=C43)c2)c1F`, in data set [1], the pKa (usually the negative logarithm of the acid dissociation constant) amounted to 5.3.
`NC1=N[C@](c2ccc(OC(F)F)cc2)(c2cccc(OCCF)c2)C2=NCC(F)(F)CN12` displayed a pKa in data set [1] of 6.5.
As for `NC1=N[C@@]2(c3cc(NC(=O)c4cnc(C(F)F)cn4)ccc3F)CO[C@H](CF)[C@H]2CS1`, the concentration at 6 h in data set [2] and in data set [3] was 570 nM in each case. Also, the BPR in data set [4] is 0.7.
On to `NC1=N[C@@]2(c3cc(NC(=O)c4cnc(CF)cn4)ccc3F)CO[C@H](C(F)(F)F)[C@H]2CS1`, for which the concentration at 6 h in data set [2] amounted to 229 nM; in data set [3], 845 nM. Further, in data set [4], the BPR was 3.7.
